According to patent US10183908B2, “Compositions for the treatment of kidney and/or liver disease” (VECTUS BIOSYSTEMS LIMITED, priority 2015, dated 2019):

Key:
[1] = test system: bovine aortic endothelial cells; experiment: xCELLigence cell impedance in bovine aortic endothelial cells; format: cell-based; details: test compounds at 62.5, 125 or 250 μM; FIG. 9; negative response = indirect vasodilator
Experimental: (§1) Briefly, 50 μl of cell culture medium (DMEM low glucose supplemented with 10% fetal bovine serum at 37° C.) was added to each well of an E-Plate 96 (Roche), and the background impedance in each well was measured. 50 μl of A-10 cell suspension (10,000 cells/well) was then added to the appropriate wells of the E-Plate 96. Cell index was monitored for each well of the E-Plate 96 in RTCA SP Station within the cell culture incubator. After overnight incubation for 16-20 hours at 5% CO2 and 95% humidity, 100 μl of test compound solution (test compounds were prepared in DMSO and diluted with cell culture medium to a final DMSO concentration of 0.25%) was added to the appropriate wells of the E-Plate 96 and cell index values were measured immediately following compound treatment every 20 seconds for 3 hours. Cell index value is baseline-corrected by subtracting the cell index of vehicle-treated cells and normalized by dividing by the cell index at the time point immediately before compound addition. Baseline normalized cell index as a function of time is plotted using Roche RTCA software.
The xCELLigence SP system was also used to measure changes in cellular impedance following the treatment of bovine aortic endothelial cells (European Collection of Cell Cultures) with test compound. The method employed is the same for the A10 embryonic vascular smooth muscle cells described above but with the cell culture medium supplemented with 15% fetal bovine serum instead of 10%.
Compounds may interact with vascular endothelial cells causing the release of substances such as nitric oxide and endothelium-derived hyperpolarising factor, which in turn act on the vascular smooth muscle cells causing vasodilatation and lowering blood pressure. Such compounds are termed indirect vasodilators.

[2] = test system: Rat (NRK-52E) renal proximal tubule cells; experiment: Rescue of renal proximal tubule cells from cisplatin cytotoxicity (WST-8/CCK-8); format: cell-based; details: test compound 30 μM; cisplatin 5 μg/ml; 24 or 48 hours; FIG. 10
Experimental: Rat (NRK-52E) renal proximal tubule cells grown in DMEM+10% FBS+1% NEAA+2 mM glutamine were placed in 96 well plates at 10,000 cells/well and incubated at 37° C. with 5% CO2 overnight. Test compounds at a concentration of 30 μM were incubated with human or rat renal proximal tubule cells for 2 hours at 37° C. and 5% CO2. Cis-diamminedichloroplatinum[…] (cisplatin) was then added at […] and each cell population was then incubated for 24 or 48 hours at 37° C. with 5% CO2. Test compounds were maintained at their original concentrations. To assay the cytotoxic effects of cisplatin on the rat renal proximal tubule cells a highly water-soluble tetrazolium salt, WST-8, which is reduced by dehydrogenases in cells to produce formazan, a water-soluble, yellow-coloured indicator dye was used following the manufacturer's instructions (specifically the Cell Count Kit-8 (CCK-8) assay from Sigma). Plate absorbance of the WST-8 (CCK-8) reagent was then measured at 450 nm using a Thermo Scientific Multiskan EX plate reader.

[3] = test system: A10 embryonic vascular smooth muscle cells; experiment: xCELLigence cell impedance in A10 vascular smooth muscle cells; format: cell-based; details: test compounds at 62.5, 125 or 250 μM; FIG. 8; negative response = direct vasodilator
Excerpt: The xCELLigence SP system (Roche) was used to measure changes in cellular impedance (cell index) following the treatment of A10 embryonic vascular smooth muscle cells (ATCC, CRL-1476) with test compound. In this in vitro cell based experimental system a negative impedance profile correlates with blood pressure reduction in rats—a decrease in impedance is associated with vasodilatation and an increase in impedance is associated with vasoconstriction (Stallaert W, Dorn J F, van der Westhuizen E, Audet M & Bouvier M. Impedance responses reveal β-adrenergic signaling […] and allow classification of ligands with distinct signalling profiles PLoS ONE 2012; 7(1):e29420, doi:10.1371/journal.pone.0029420).
as §1
Compounds may achieve reductions in blood pressure by interaction with vascular smooth muscle cells causing these cells to relax resulting in vasodilatation and a reduction in blood pressure. These are termed direct vasodilators.

SHR [4] = experiment: Hepatic fibrosis in SHR (Masson's trichrome); format: in vivo, rat; details: for Fibrosis in the liver compared to 18 week controls: SHR, 500 pmol/kg/min, 4 weeks, FIG. 13, *p<0.05, **p<0.025, ***p<0.01
Excerpt: (§2) Fourteen week old SHR (on a 2.2% salt diet; Glen Forrest Stockfeeders) were randomly assigned to zero time control (14 week old rats), test compound treatment drinking solution (500 pmol/kg/min in deionised distilled water) or control drinking solution (5% ethanol in deionised distilled water). The rats assigned to zero time control group (14 week old rats) were anaesthetised and had their kidneys and liver harvested while rats assigned to control and test compound treatment were weighed twice weekly and had their drinking solution intake monitored to allow adjustment of the test compound concentration in the drinking solution to maintain a constant dose over the 4-week study period. Blood pressure was measured twice weekly by tail cuff plethysmography (PowerLab, ADInstruments, Castle Hill, NSW, Australia). After 4 weeks rats were anaesthetised (18 week old rats), and their kidneys and liver harvested. To quantitate tissue fibrosis and/or fat content, tissue slices ≤3 mm thick were fixed in 10% buffered formalin for 24 hours, processed and embedded in paraffin. Three micron transverse sections were stained using Masson's trichrome stain. A minimum of 20 random fields at magnification ×20 from transverse sections (5 at each of 2 levels) were digitized and the degree of fibrosis and fat content determined as a percent of field area of each digitized image using Image-Pro Plus V.7 (Media Cybernetics, Bethesda, Md., USA) then averaged to determine the level of fibrosis and/or fat content for each rat.

SHR [5] = experiment: Kidney fibrosis in SHR (Masson's trichrome); format: in vivo, rat; details: SHR on 2.2% salt diet; 500 pmol/kg/min; 4 weeks; FIG. 12, *p<0.05
Excerpt: as §2

Row | SMILES | impedance response for bovine aortic endothelial cells [1] | Cisplatin induced cell death in renal proximal tubular cells [2] | impedance response for A10 vascular smooth muscle cells [3] | Fibrosis in the liver compared to 18 week controls (SHR [4]) | Fibrosis in the kidney compared to 18 week controls (SHR [5]) | Tissue architecture of portal tracts in Masson's tri-chrome stained liver sections (SHR [4]; SHR treated rats vs control, FIG. 14)
1 | Cc1noc(C)c1-c1ccc(-c2cccc(O)c2)c(CCC(N)=O)c1 [Compound P41, 3-(4-(3,5-Dimethylisoxazol-4-yl)-3′-hydroxy-[1,1′-biphenyl]-2-yl)propanamide] | Negative impedance responses | decreased |  |  |  | 
2 | NC(=O)CCc1cc(-c2ccc(F)cc2)ccc1-c1cccc(O)c1 [Compound P3, 3-(4″-Fluoro-3-hydroxy-1,1′:4′,1″-terphenyl-2′-yl)propanamide] | Negative impedance responses | decreased | Negative impedance responses |  |  | 
3 | Cc1n[nH]cc1-c1ccc(-c2cccc(O)c2)c(CCC(N)=O)c1 [Compound P45, 3-[3′-Hydroxy-4-(3-methyl-1H-pyrazol-4-yl)biphenyl-2-yl]propanamide] |  | decreased |  |  |  | 
4 | Cn1nccc1-c1ccc(-c2cccc(O)c2)c(CCC(N)=O)c1 [Compound P38, 3-[3′-Hydroxy-4-(1-methyl-1H-pyrazol-5-yl)biphenyl-2-yl]propanamide] | Negative impedance responses | decreased |  |  |  | 
5 | NC(=O)CCc1cc(-c2ccncc2)ccc1-c1cccc(O)c1 [Compound P6, 3-[3′-Hydroxy-4-(pyridin-4-yl)biphenyl-2-yl]propanamide] | Negative impedance responses | decreased |  |  |  | 
6 | NC(=O)CCc1cc(-c2ccoc2)ccc1-c1cccc(O)c1 [Compound P11, 3-(4-(Furan-3-yl)-3′-hydroxy-[1,1′-biphenyl]-2-yl)propanamide] | Negative impedance responses | decreased | Negative impedance responses | decreased | decreased | 
7 | NC(=O)CCc1cc(-c2cccc(F)c2)ccc1-c1cccc(O)c1 [Compound P1, 3-(3″-Fluoro-3-hydroxy-1,1′:4′,1′-terphenyl-2′-yl)propanamide] | Negative impedance responses | decreased |  |  |  | 
8 | NC(=O)CCc1cc(-c2ccc(N)cc2)ccc1-c1cccc(O)c1 [Compound P49, 3-(4″-Amino-3-hydroxy-1,1′:4′,1″-terphenyl-2′-yl)propanamide] | Negative impedance responses | decreased |  |  |  | 
9 | NC(=O)CCc1cc(-c2cc(F)cc(F)c2)ccc1-c1cccc(O)c1 [Compound P33, 3-(3″,5″-Difluoro-3-hydroxy-1,1′:4′,1″-terphenyl-2′-yl)propanamide] | Negative impedance responses | decreased | Negative impedance responses |  |  | 
10 | Cc1ccsc1-c1ccc(-c2cccc(O)c2)c(CCC(N)=O)c1 [Compound P43, 3-[3′-Hydroxy-4-(3-methylthiophen-2-yl)biphenyl-2-yl]propanamide] | Negative impedance responses | decreased |  |  |  | 
11 | NC(=O)CCc1cc(-c2cccc(O)c2)ccc1-c1cccc(O)c1 [Compound P48, 3-(3,3″-Dihydroxy-1,1′:4′,1″-terphenyl-2′-yl)propanamide] | Negative impedance responses |  |  |  |  | 
12 | NC(=O)CCc1cc(-c2ccccn2)ccc1-c1cccc(O)c1 [Compound P4, 3-[3′-Hydroxy-4-(pyridin-2-yl)biphenyl-2-yl]propanamide] | Negative impedance responses | decreased |  |  |  | 
13 | Cc1n[nH]c(C)c1-c1ccc(-c2cccc(O)c2)c(CCC(N)=O)c1 [Compound P42, 3-[4-(3,5-Dimethyl-1H-pyrazol-4-yl)-3′-hydroxybiphenyl-2-yl]propanamide] | Negative impedance responses | decreased |  |  |  | 
14 | Cc1cscc1-c1ccc(-c2cccc(O)c2)c(CCC(N)=O)c1 [Compound P44, 3-[3′-Hydroxy-4-(4-methylthiophen-3-yl)biphenyl-2-yl]propanamide] | Negative impedance responses | decreased |  |  |  | 
15 | NC(=O)CCc1cc(-n2cccc2)ccc1-c1cccc(O)c1 [Compound P9, 3-(3′-Hydroxy-4-(1H-pyrrol-1-yl)-[1,1′-biphenyl]-2-yl)propanamide] | Negative impedance responses | decreased | Negative impedance responses | decreased | decreased | normal tissue architecture has been restored
16 | COc1cccc(-c2ccc(-c3cccc(O)c3)c(CCC(N)=O)c2)c1 [Compound P50, 3-(3-Hydroxy-3″-methoxy-1,1′:4′,1″-terphenyl-2′-yl)propanamide] | Negative impedance responses | decreased |  |  |  | 
17 | Cc1cccc(-c2ccc(-c3cccc(O)c3)c(CCC(N)=O)c2)c1 [Compound P46, 3-(3-Hydroxy-3″-methyl-1,1′:4′,1″-terphenyl-2′-yl)propanamide] | Negative impedance responses | decreased | Negative impedance responses |  |  | 
18 | NC(=O)CCc1cc(-c2cccc(C(=O)O)c2)ccc1-c1cccc(O)c1 [Compound P47, 3′-(3-Amino-3-oxopropyl)-3″-hydroxy-1,1′:4′,1″-terphenyl-3-carboxylic Acid] | Negative impedance responses |  |  |  |  | 
